Data on 40 compounds can be found in ChEMBL document CHEMBL5390269, “Synthesis, anti-inflammatory activity, and conformational relationship studies of chromone derivatives incorporating amide groups” (Bioorg Med Chem Lett, 2023).

One data set deals with RAW264.7. Description: Anti-inflammatory activity in mouse RAW264.7 cells assessed as inhibition of LPS-stimulated NO production. It counts as functional, cell-based.
In data set [1] the target is T1, Prostaglandin G/H synthase 2 (Homo sapiens, UniProt P35354).
T1 sequence (P35354 whole entry): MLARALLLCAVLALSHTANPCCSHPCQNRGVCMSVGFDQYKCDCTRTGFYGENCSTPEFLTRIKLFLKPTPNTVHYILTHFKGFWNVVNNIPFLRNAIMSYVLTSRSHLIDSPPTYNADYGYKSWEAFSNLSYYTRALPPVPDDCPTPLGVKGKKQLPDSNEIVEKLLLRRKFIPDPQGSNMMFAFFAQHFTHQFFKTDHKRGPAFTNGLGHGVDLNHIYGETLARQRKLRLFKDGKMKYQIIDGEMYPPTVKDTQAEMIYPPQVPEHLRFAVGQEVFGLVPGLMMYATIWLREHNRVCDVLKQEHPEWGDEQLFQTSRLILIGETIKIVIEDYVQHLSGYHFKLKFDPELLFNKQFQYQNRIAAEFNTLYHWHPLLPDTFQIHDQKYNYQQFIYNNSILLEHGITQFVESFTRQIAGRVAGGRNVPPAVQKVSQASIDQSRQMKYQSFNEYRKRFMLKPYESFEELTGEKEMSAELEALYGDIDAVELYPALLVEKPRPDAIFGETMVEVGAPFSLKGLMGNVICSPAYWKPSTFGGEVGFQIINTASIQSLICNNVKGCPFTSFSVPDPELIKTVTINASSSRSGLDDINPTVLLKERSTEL
Put plainly: Inhibition of COX-2 (unknown origin).

The nature of data set [2]: Cytotoxicity against mouse RAW264.7 cells assessed as cell growth inhibition by CCK-8 colorimetric assay. It counts as toxicity, cell-based.
The target in the next data set is T2, Interleukin-5 (Homo sapiens, UniProt P05113).
T2 sequence (P05113 whole entry): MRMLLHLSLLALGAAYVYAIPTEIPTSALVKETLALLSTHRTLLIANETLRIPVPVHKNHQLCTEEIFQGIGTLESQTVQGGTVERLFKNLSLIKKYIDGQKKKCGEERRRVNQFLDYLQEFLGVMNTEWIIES
Description: Inhibition of IL-5 (unknown origin).

As for `Cc1ccc(NC(=O)c2cc(=O)c3ccccc3o2)cc1Cl`, the EC50 in the data set on RAW264.7 worked out at 30.1 µM.

Consider `O=C(Nc1ccc(C(F)(F)F)cc1)c1cc(=O)c2ccccc2o1`, for which the EC50 in the data set on RAW264.7 was > 1000 µM.

As to `COc1cccc2oc(C(=O)Nc3ccc(Br)cc3)cc(=O)c12`, the EC50 with RAW264.7 stood at 378 µM.

Consider `Cc1ccc(Cl)cc1NC(=O)c1cc(=O)c2ccccc2o1`, for which, in the data set with RAW264.7, the EC50 stood at 45.3 µM.

Compound `O=C1Nc2ccccc2/C1=C/c1coc2ccccc2c1=O` came in with an IC50 in data set [1] of 0.02 µM.

Regarding `O=C(Nc1ccc(F)c(F)c1)c1cc(=O)c2ccccc2o1`, the EC50 in the data set on RAW264.7 worked out at 91.8 µM.

As for `COc1ccc2c(=O)cc(C(=O)Nc3ccc(Cl)c(Cl)c3)oc2c1`, the EC50 in the data set with RAW264.7 came to 82 µM.

On to `Cc1ccc2oc(C(=O)Nc3ccc(Cl)c(Cl)c3)cc(=O)c2c1`, for which the EC50 with RAW264.7 stood at 40.3 µM.

Consider `O=C(Nc1ccc(Br)cc1)c1cc(=O)c2ccc(Br)cc2o1`, for which the EC50 in the data set on RAW264.7 came out at 50 µM.

Take `Cc1ccc(NC(=O)c2cc(=O)c3ccccc3o2)cc1C`: the EC50 with RAW264.7 was 31.7 µM.

Regarding `COc1ccc2c(=O)cc(C(=O)Nc3ccc(Cl)c(F)c3)oc2c1`, the EC50 with RAW264.7 came to 11.1 µM.

For the compound `COc1ccc(NC(=O)c2cc(=O)c3c(OC)cccc3o2)cc1`, in the data set with RAW264.7, the EC50 is 191 µM.

Regarding `O=C(Nc1ccc(F)c(F)c1)c1cc(=O)c2ccc(Br)cc2o1`, the EC50 in the data set on RAW264.7 came out at 138 µM.

For `Cc1ccc2oc(C(=O)Nc3ccc(C)c(Cl)c3)cc(=O)c2c1`, the EC50 in the data set with RAW264.7 came out at 80 µM.

On to `CCOc1ccc(NC(=O)c2cc(=O)c3ccccc3o2)cc1`, for which the EC50 in the data set with RAW264.7 is > 1000 µM.

In the case of `COc1cc(OC)c2c(=O)cc(C(=O)Nc3ccc(C)c(Cl)c3)oc2c1`, in data set [2], the IC50 was determined as 48 µM. Besides, in the data set on RAW264.7, the EC50 came to 115 µM.

Turning to `COc1cc(OC)c2c(=O)cc(C(=O)Nc3cc(Cl)ccc3C)oc2c1`, the EC50 in the data set with RAW264.7 was 18.7 µM.

For `COc1cc(OC)c2c(=O)cc(C(=O)Nc3ccc(Cl)c(Cl)c3)oc2c1`, in the data set on RAW264.7, the EC50 amounted to 32.3 µM.

On to `COc1cccc2oc(C(=O)Nc3cc(Cl)ccc3C)cc(=O)c12`, for which, in data set [2], the IC50 worked out at 48 µM.

In the case of `COc1ccc2c(=O)cc(C(=O)Nc3ccc(C)c(Cl)c3)oc2c1`, the EC50 in the data set on RAW264.7 came to 45.2 µM.

In the case of `O=C(Nc1ccc(Br)cc1)c1cc(=O)c2ccccc2o1`, the IC50 in data set [2] is 24.3 µM. In addition, the EC50 in the data set with RAW264.7 turned out to be 41 µM.

In the case of `COc1ccc2c(=O)cc(C(=O)Nc3ccc(Br)cc3)oc2c1`, the EC50 in the data set with RAW264.7 was 89.5 µM.

With `COc1cccc2oc(C(=O)Nc3ccc(F)c(F)c3)cc(=O)c12`, in the data set on RAW264.7, the EC50 came to 208 µM.

Regarding `O=C(Nc1ccc(C(F)(F)F)cc1)c1cc(=O)c2ccc(Br)cc2o1`, the IC50 in data set [2] was 324 µM. In the data set with RAW264.7, the EC50 was 167 µM.

As to `Cc1ccc(NC(=O)c2cc(=O)c3ccc(Br)cc3o2)cc1Cl`, in the data set on RAW264.7, the EC50 amounted to 37.9 µM.

For `Cc1ccc2oc(C(=O)Nc3cc(Cl)ccc3C)cc(=O)c2c1`, the IC50 in data set [2] came to 38.4 µM. The EC50 with RAW264.7 came to 40.5 µM.

On to `COc1ccc(NC(=O)c2cc(=O)c3ccccc3o2)cc1`, for which the EC50 in the data set on RAW264.7 came out at 42.1 µM.

For the compound `COc1ccc(NC(=O)c2cc(=O)c3ccc(Br)cc3o2)cc1`, in the data set with RAW264.7, the EC50 came out at 174 µM.

`O=c1c(CCC(O)c2ccc(O)cc2)coc2cccc(OCC3CCCCC3)c12` (stereo unspecified): the IC50 at Interleukin-5 turned out to be 4 µM.

For `COc1ccc(NC(=O)c2cc(=O)c3c(OC)cc(OC)cc3o2)cc1`, the EC50 in the data set with RAW264.7 was 21.3 µM.

As for `CC(C)Cc1ccc(C(C)C(=O)O)cc1` (stereo unspecified) [IBUPROFEN], the IC50 in data set [2] was > 1000 µM. In addition, in the data set with RAW264.7, the EC50 was 26.7 µM.

Consider `COc1cccc2oc(C(=O)Nc3ccc(Cl)c(F)c3)cc(=O)c12`, for which the EC50 in the data set on RAW264.7 amounted to 83.7 µM.

As to `Cc1ccc2oc(C(=O)Nc3ccc(Cl)c(C(F)(F)F)c3)cc(=O)c2c1`, the EC50 in the data set with RAW264.7 is 40.7 µM.

Regarding `COc1cc(OC)c2c(=O)cc(C(=O)Nc3ccc(C(F)(F)F)cc3)oc2c1`, the EC50 with RAW264.7 is 31.7 µM.

In the case of `COc1cccc2oc(C(=O)Nc3ccc(C(F)(F)F)cc3)cc(=O)c12`, the EC50 in the data set with RAW264.7 was found to be 175 µM.

In the case of `COc1cccc2oc(C(=O)Nc3ccc(Cl)c(C(F)(F)F)c3)cc(=O)c12`, the EC50 in the data set with RAW264.7 came to 448 µM.

Consider `COc1ccc2c(=O)cc(C(=O)Nc3ccccc3C)oc2c1`, for which the IC50 in data set [2] was 813 µM. Also, the EC50 in the data set on RAW264.7 is 5.33 µM.

On to `COc1ccc2c(=O)cc(C(=O)Nc3ccc(Cl)c(C(F)(F)F)c3)oc2c1`, for which, in the data set on RAW264.7, the EC50 was 86.5 µM.

As for `Cc1ccc2oc(C(=O)Nc3ccc(F)c(F)c3)cc(=O)c2c1`, the EC50 in the data set with RAW264.7 was found to be 41 µM.

As to `Cc1ccc(NC(=O)c2cc(=O)c3ccc(Br)cc3o2)cc1C`, the EC50 in the data set on RAW264.7 came out at 821 µM.

By EC50 is commonly meant the concentration giving half of the maximal effect. Broadly, the IC50 is the concentration that inhibits the measured activity by half.
